Results reported in US11040981B2, “Pyrrolotriazine compounds and methods of inhibiting TAM kinases” (Syros Pharmaceuticals, Inc., priority 2017, dated 2021).

What was measured:
[1] = target: T1, AXL (Homo sapiens, UniProt P30530); assay: TR-FRET kinase activity assay, AXL; type: biochemical; conditions: ATP at Km, 60 minutes
T1 sequence (P30530 26-894): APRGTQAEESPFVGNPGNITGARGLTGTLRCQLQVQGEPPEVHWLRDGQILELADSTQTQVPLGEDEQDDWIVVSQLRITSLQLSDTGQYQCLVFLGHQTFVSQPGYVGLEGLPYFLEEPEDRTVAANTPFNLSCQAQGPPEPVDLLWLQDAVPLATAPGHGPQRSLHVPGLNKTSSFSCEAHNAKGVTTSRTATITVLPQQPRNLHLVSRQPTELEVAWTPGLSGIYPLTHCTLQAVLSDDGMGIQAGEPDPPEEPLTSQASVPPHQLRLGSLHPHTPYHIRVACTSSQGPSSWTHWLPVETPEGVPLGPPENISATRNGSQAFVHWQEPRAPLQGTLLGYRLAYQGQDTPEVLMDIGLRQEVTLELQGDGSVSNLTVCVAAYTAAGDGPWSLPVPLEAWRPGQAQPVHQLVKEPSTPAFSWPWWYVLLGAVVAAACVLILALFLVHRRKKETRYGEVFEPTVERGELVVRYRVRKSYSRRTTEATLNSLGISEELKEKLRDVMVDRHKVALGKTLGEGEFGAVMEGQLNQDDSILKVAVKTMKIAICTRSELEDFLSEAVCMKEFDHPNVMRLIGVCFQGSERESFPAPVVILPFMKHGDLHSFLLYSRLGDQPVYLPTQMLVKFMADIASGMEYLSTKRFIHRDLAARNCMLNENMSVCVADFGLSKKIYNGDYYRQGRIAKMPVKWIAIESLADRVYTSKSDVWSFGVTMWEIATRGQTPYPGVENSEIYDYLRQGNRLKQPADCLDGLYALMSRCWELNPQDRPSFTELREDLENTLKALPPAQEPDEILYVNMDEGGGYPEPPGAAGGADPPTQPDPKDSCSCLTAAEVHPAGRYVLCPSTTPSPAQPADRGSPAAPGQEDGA
How it was run: (§1)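 IC50 reflects the drop in TR-FRET between Eu anti-phosphotyrosine antibody and labelled peptide after a 60-minute room-temperature reaction. Buffer was 50 mM HEPES pH 7.5 with 10 mM MgCl2, 1 mM EGTA, 0.01% Brij 35 and 1 mM DTT, with ATP at Km per enzyme and EDTA quench.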

[2] = target: T2, FLT3 (Homo sapiens, UniProt P36888); assay: TR-FRET kinase activity assay, FLT3; type: biochemical; conditions: ATP at Km, 60 minutes
T2 sequence (P36888 27-993): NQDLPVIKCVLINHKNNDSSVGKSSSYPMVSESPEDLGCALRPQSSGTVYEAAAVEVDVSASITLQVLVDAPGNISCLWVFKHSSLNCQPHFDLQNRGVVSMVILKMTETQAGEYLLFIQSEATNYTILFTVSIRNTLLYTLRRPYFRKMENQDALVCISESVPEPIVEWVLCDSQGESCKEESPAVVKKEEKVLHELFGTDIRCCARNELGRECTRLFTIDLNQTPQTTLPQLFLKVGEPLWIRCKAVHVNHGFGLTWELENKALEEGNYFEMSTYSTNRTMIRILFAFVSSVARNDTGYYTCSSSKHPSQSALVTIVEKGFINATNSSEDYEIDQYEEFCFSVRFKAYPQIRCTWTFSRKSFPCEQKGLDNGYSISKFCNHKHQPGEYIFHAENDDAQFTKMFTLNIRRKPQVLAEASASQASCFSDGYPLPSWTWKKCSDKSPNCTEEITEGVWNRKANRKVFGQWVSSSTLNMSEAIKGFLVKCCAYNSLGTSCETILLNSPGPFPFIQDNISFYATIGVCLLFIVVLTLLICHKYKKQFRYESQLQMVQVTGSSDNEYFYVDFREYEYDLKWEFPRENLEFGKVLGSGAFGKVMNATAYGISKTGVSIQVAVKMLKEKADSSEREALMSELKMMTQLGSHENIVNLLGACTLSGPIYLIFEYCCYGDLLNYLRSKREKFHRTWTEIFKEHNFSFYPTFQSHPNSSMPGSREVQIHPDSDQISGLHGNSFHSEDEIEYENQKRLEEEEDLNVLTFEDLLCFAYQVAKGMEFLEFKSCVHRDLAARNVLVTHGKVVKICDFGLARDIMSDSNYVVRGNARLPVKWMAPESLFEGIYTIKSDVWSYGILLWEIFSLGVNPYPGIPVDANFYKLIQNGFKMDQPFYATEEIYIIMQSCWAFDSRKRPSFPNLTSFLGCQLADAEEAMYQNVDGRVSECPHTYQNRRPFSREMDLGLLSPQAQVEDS
How it was run: as §1

Row | SMILES | IC50 [1] [nM] | IC50 [2] [nM]
1 | COC[C@H](C)Nc1ncc2c(-c3cnn([C@H]4CCN(C)C4=O)c3)cc([C@H]3CC[C@H](O)CC3)n2n1 [Compound 470] | ≤ 100 | 100 to 1000
2 | COC[C@H](C)Nc1ncc2c(C3=CCN(C(=O)OC(C)(C)C)CC3)cc([C@H]3CC[C@H](O)CC3)n2n1 [Compound 425] | ≤ 100 | 100 to 1000
3 | COC[C@H](C)Nc1ncc2c(-c3ccc(CC(=O)O)cc3)cc([C@H]3CC[C@H](O)CC3)n2n1 [Compound 133] | ≤ 100 | 100 to 1000
4 | COC[C@H](C)Nc1ncc2c(-c3cnn(CC(C)(C)N4CCOCC4)c3)cc([C@H]3CC[C@H](O)CC3)n2n1 [Compound 507] | ≤ 100 | 100 to 1000
5 | CC[C@H](C)Nc1ncc2c(C3=CCNCC3)cc([C@H]3CC[C@H](O)CC3)n2n1 [Compound 130] | ≤ 100 | ≤ 100
6 | COC[C@H](C)Nc1ncc2c(-c3ccnc(N4CCC5(COC5)C4)c3)cc([C@H]3CC[C@H](O)CC3)n2n1 [Compound 493] | ≤ 100 | 100 to 1000
7 | COC[C@H](C)Nc1ncc2c(-c3cnn(CC4CCO4)c3)cc([C@H]3CC[C@H](O)CC3)n2n1 (stereo partly shown) [Compound 439] | ≤ 100 | 100 to 1000
8 | COC[C@H](C)Nc1ncc2c(-c3ccnc(N4CCc5nc(C)sc5C4)c3)cc([C@H]3CC[C@H](O)CC3)n2n1 [Compound 509] | ≤ 100 | 1000 to 10000
9 | COC[C@H](C)Nc1ncc2c(-c3cnn(C(C)(C)CN4CCOCC4)c3)cc([C@H]3CC[C@H](O)CC3)n2n1 [Compound 459] | ≤ 100 | 1000 to 10000
10 | COC[C@H](C)Nc1ncc2c(-c3cnn(C(C)(C)C(=O)C4CCc5sc(C)nc5C4)c3)cc([C@H]3CC[C@H](O)CC3)n2n1 (stereo partly shown) [Compound 496] | ≤ 100 | 1000 to 10000
11 | COC[C@H](C)Nc1ncc2c(-c3cnn(C(C)(C)c4nnc(C)o4)c3)cc([C@H]3CC[C@H](O)CC3)n2n1 [Compound 440] | ≤ 100 | 1000 to 10000
12 | COC[C@H](C)Nc1ncc2c(C3=C[C@H]4CCC(C3)N4C(C)=O)cc([C@H]3CC[C@H](O)CC3)n2n1 [Compound 468] | ≤ 100 | 100 to 1000
13 | COC[C@H](C)Nc1ncc2c(-c3ccnc(N4C[C@H]5CC[C@@H](C4)O5)c3)cc([C@H]3CC[C@H](O)CC3)n2n1 [Compound 445] | ≤ 100 | 100 to 1000
14 | COC[C@H](C)Nc1ncc2c(-c3cnn(C(C)(C)C(=O)N4CCN(C)CC4)c3)cc([C@H]3CC[C@H](O)CC3)n2n1 [Compound 466] | ≤ 100 | 1000 to 10000
15 | COC[C@H](C)Nc1ncc2c(C3=C[C@@H]4CC[C@H](C3)N4)cc([C@H]3CC[C@H](O)CC3)n2n1 [Compound 461] | ≤ 100 | 1000 to 10000
16 | COC[C@H](C)Nc1ncc2c(-c3cnn(C[C@H]4CC(=O)N(C)C4)c3)cc([C@H]3CC[C@H](O)CC3)n2n1 [Compound 475] | ≤ 100 | 100 to 1000
17 | COC[C@H](C)Nc1ncc2c(-c3cnn(C4COC4)c3)cc(-c3ccc(O)nc3)n2n1 [Compound 501] | 100 to 1000 | 1000 to 10000
18 | COC[C@H](C)Nc1ncc2c(-c3ccnc(N4CCC5(CC4)COC5)c3)cc([C@H]3CC[C@H](O)CC3)n2n1 [Compound 427] | ≤ 100 | 100 to 1000

Row | SMILES | IC50 [1] [nM] | IC50 [2] [nM]
19 | COC[C@H](C)Nc1ncc2c(-c3ccnc(N4CCN(S(=O)(=O)C(F)(F)F)CC4)c3)cc([C@H]3CC[C@H](O)CC3)n2n1 [Compound 487] | 100 to 1000 | 1000 to 10000
20 | CCC1(Nc2ncc3c(-c4ccc(CN5CCN(C)CC5)cc4)cc([C@H]4CC[C@H](O)CC4)n3n2)CCC1 [Compound 126] | 100 to 1000 | 1000 to 10000
21 | COC[C@H](C)Nc1ncc2c(-c3cnn(C4COC4)c3)cc(C3CCOCC3)n2n1 [Compound 503] | 100 to 1000 | 1000 to 10000
22 | COC[C@H](C)Nc1ncc2c(-c3cnn(C(C)(C)C(=O)N4CCC(C)(O)CC4)c3)cc([C@H]3CC[C@H](O)CC3)n2n1 [Compound 450] | ≤ 100 | 1000 to 10000
23 | COC[C@H](C)Nc1ncc2c(-c3ccnc(N4CCN(S(=O)(=O)C5CC5)CC4)c3)cc([C@H]3CC[C@H](O)CC3)n2n1 [Compound 491] | ≤ 100 | 100 to 1000
24 | COC[C@H](C)Nc1ncc2c(-c3cnn(C(C)(C)C(=O)N4Cc5nc(C)sc5C4)c3)cc([C@H]3CC[C@H](O)CC3)n2n1 [Compound 495] | ≤ 100 | 1000 to 10000
25 | COC[C@H](C)Nc1ncc2c(-c3ccnc(N4Cc5nc(C)sc5C4)c3)cc([C@H]3CC[C@H](O)CC3)n2n1 [Compound 479, (trans)-4-(2-(((S)-1-methoxypropan-2-yl)amino)-5-(2-(2-methyl-4H-pyrrolo[3,4-d]thiazol-5(6H)-yl)pyridin-4-yl)pyrrolo[2,1-f][1,2,4]triazin-7-yl)cyclohexanol] | ≤ 100 | 1000 to 10000
26 | COC[C@H](C)Nc1ncc2c(-c3cccc(N4C[C@H]5COC[C@H]5C4)c3)cc([C@H]3CC[C@H](O)CC3)n2n1 [Compound 464] | ≤ 100 | 100 to 1000
27 | CC[C@H](C)Nc1ncc2c(-c3ccc(CN4CCN(C)CC4)cc3)cc(C3CCC(C)(O)CC3)n2n1 (stereo in doubt) [Compound 131, (cis)-4-(2-((S)-sec-butylamino)-5-(4-((4-methylpiperazin-1-yl)methyl)phenyl)pyrrolo[2,1-f][1,2,4]triazin-7-yl)-1-methylcyclohexanol] | ≤ 100 | ≤ 100
28 | COC[C@H](C)Nc1ncc2c(-c3ccnc(N4CCN(C(=O)OC5COC5)CC4)c3)cc([C@H]3CC[C@H](O)CC3)n2n1 [Compound 504] | ≤ 100 | 100 to 1000
29 | COC[C@H](C)Nc1ncc2c(-c3cnn(C(C)(C)C(=O)N4CCC(C)(C#N)CC4)c3)cc([C@H]3CC[C@H](O)CC3)n2n1 [Compound 451] | ≤ 100 | 100 to 1000
30 | CC[C@H](C)Nc1ncc2c(-c3ccc(CN4CCN(C)CC4)cc3)cc([C@H]3CC[C@](C)(O)CC3)n2n1 (relative stereo) [Compound 132, (trans)-4-(2-((S)-sec-butylamino)-5-(4-((4-methylpiperazin-1-yl)methyl)phenyl)pyrrolo[2,1-f][1,2,4]triazin-7-yl)-1-methylcyclohexanol] | ≤ 100 | ≤ 100
31 | COC[C@H](C)Nc1ncc2c(-c3ccnc(N4CC5(COC5)C4)c3)cc([C@H]3CC[C@H](O)CC3)n2n1 [Compound 426] | ≤ 100 | 100 to 1000
32 | COC[C@H](C)Nc1ncc2c(C3=C[C@H]4CC[C@@H](C3)N4C)cc([C@H]3CC[C@H](O)CC3)n2n1 [Compound 494] | ≤ 100 | 1000 to 10000
33 | COC[C@H](C)Nc1ncc2c(-c3csc(C(=O)N4CCOCC4)c3)cc([C@H]3CC[C@H](O)CC3)n2n1 [Compound 444] | ≤ 100 | 100 to 1000
34 | COC[C@H](C)Nc1ncc2c(C3=C[C@@H]4CC[C@H](C3)N4C)cc([C@H]3CC[C@H](O)CC3)n2n1 [Compound 465] | ≤ 100 | 1000 to 10000
35 | COC[C@H](C)Nc1ncc2c(C3=CCNCC3)cc([C@H]3CC[C@H](O)CC3)n2n1 [Compound 443] | ≤ 100 | 1000 to 10000
